According to ChEMBL document CHEMBL4304820, “Design, synthesis and biological evaluation of novel serotonin and dopamine receptor ligands being 6-bromohexyl saccharine derivatives” (Bioorg Med Chem Lett, 2019):

Columns and labels:
[1] = molecular target: 5-hydroxytryptamine receptor 2A (Homo sapiens, UniProt P28223); assay: Displacement of [3H]ketanserin from full length human cloned 5HT2A receptor expressed in CHO-K1 cells incubated for 1 hr by radioligand displacement assay; type: cell-based
[2] = molecular target: 5-hydroxytryptamine receptor 6 (Homo sapiens, UniProt P50406); assay: Displacement of [3H]LSD from full length human cloned 5HT6R expressed in HEK293 cells incubated for 1 hr by radioligand displacement assay; type: cell-based
D(2) dopamine receptor [3] = molecular target: T1, D(2) dopamine receptor (Homo sapiens, UniProt P14416); assay: Displacement of [3H]raclopride from full length human cloned D2L receptor expressed in HEK293 cells incubated for 1 hr by radioligand displacement assay; type: cell-based
[4] = molecular target: 5-hydroxytryptamine receptor 7 (Homo sapiens, UniProt P34969); assay: Displacement of [3H]5-CT from full length human cloned 5-HT7bR expressed in HEK293 cells incubated for 1 hr by radioligand displacement assay; type: cell-based
[5] = molecular target: T2, 5-hydroxytryptamine receptor 1A (Homo sapiens, UniProt P08908); assay: Displacement of [3H]-8-OH-DPAT from full length human cloned 5HT1A receptor expressed in HEK293 cells incubated for 1 hr by radioligand displacement assay; type: cell-based
T2 sequence (P08908 whole entry): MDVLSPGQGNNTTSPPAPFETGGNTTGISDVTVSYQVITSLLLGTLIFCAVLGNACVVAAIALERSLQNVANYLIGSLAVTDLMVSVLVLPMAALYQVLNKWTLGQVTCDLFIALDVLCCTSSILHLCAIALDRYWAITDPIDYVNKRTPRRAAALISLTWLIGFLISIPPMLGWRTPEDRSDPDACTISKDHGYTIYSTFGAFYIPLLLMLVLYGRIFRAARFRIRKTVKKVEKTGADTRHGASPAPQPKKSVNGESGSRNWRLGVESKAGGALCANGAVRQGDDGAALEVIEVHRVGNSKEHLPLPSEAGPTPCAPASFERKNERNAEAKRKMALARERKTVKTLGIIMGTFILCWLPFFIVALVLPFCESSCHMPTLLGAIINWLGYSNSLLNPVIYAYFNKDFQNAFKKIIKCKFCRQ

[6] = molecular target: T3, 5-hydroxytryptamine receptor 1A (Rattus norvegicus, UniProt P19327); assay: Displacement of [3H]-8-OH-DPAT from 5HT1A receptor in rat brain hippocampus incubated for 60 mins by radioligand binding assay
T3 sequence (P19327 whole entry): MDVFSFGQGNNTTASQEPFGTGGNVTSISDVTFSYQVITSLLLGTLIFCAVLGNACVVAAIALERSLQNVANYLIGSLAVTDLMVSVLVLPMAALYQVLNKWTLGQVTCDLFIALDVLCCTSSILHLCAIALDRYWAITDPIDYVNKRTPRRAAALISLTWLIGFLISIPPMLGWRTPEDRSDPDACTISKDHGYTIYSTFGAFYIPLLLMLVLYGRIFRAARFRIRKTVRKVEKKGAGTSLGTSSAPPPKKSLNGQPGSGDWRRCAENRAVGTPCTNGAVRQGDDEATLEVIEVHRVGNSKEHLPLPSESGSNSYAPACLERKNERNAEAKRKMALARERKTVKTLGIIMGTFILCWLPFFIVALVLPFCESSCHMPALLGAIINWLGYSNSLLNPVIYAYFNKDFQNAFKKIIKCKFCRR

D(2) dopamine receptor [7] = molecular target: D(2) dopamine receptor (Rattus norvegicus, UniProt P61169); assay: Displacement of [3H]raclopride from D2 receptor in rat brain striatum incubated for 60 mins by radioligand binding assay; type: tissue-based
D(2) dopamine receptor [8] = molecular target: T1, D(2) dopamine receptor; assay: Antagonist activity at human D2 receptor expressed in HEK293 cells assessed as cAMP accumulation incubated for 30 mins in presence of forskolin/dopamine by TR-FRET assay; type: functional, cell-based
[9] = molecular target: T4, 5-hydroxytryptamine receptor 1A (Homo sapiens) (UniProt P08908); assay: Antagonist activity at human 5 HT1A receptor expressed in HEK293 cells assessed as cAMP accumulation incubated for 30 mins in presence of forskolin/8-OH-DPAT by TR-FRET assay; type: functional, cell-based
T4 sequence (whole entry): T2 sequence (P08908 whole entry)

[10] = molecular target: T3, 5-hydroxytryptamine receptor 1A; assay: Displacement of [3H]-8-OH-DPAT from 5HT1A receptor in Wistar rat brain cerebral cortex incubated for 30 mins by liquid scintillation spectrometry; type: tissue-based
[11] = molecular target: 5-hydroxytryptamine receptor 2A (Rattus norvegicus, UniProt P14842); assay: Displacement of [3H]ketanserin from 5-HT2A receptor in Wistar rat brain frontal cortex incubated for 30 mins by radioligand binding assay; type: tissue-based
[12] = molecular target: T2, 5-hydroxytryptamine receptor 1A; assay: Agonist activity at human 5 HT1A receptor expressed in HEK293 cells assessed as inhibition of forskolin-stimulated cAMP accumulation incubated for 30 mins by TR-FRET assay; type: functional, cell-based
D(2) dopamine receptor [13] = molecular target: T1, D(2) dopamine receptor; assay: Displacement of [3H]raclopride from human cloned D2 receptor expressed in HEK293 cells by radioligand binding assay; type: cell-based

5-hydroxytryptamine receptor 2A (Homo sapiens, UniProt P28223), sequence (P28223 whole entry): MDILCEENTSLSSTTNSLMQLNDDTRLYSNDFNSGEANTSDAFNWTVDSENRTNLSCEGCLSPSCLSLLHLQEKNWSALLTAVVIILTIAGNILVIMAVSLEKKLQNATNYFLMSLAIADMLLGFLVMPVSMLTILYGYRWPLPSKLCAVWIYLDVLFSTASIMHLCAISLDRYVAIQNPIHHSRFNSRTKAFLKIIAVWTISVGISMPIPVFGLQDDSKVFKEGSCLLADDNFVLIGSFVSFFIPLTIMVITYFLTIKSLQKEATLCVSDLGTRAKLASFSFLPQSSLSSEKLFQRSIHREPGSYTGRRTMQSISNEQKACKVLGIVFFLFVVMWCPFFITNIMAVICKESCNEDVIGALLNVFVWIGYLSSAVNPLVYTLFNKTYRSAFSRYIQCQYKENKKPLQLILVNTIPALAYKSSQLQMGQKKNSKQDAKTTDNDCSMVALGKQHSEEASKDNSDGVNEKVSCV
5-hydroxytryptamine receptor 6, sequence (P50406 whole entry): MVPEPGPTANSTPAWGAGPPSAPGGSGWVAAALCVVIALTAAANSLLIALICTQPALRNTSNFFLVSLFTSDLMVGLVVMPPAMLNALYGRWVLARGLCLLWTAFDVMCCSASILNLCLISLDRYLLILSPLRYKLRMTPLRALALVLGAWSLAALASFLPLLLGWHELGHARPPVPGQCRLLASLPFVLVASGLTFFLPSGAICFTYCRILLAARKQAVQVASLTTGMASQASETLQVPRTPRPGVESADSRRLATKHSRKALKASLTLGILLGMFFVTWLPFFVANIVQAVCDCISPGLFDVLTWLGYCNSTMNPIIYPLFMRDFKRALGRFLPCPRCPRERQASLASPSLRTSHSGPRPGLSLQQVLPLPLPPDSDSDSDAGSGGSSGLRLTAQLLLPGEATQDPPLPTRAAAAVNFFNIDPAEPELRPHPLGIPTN
5-hydroxytryptamine receptor 7, sequence (P34969 whole entry): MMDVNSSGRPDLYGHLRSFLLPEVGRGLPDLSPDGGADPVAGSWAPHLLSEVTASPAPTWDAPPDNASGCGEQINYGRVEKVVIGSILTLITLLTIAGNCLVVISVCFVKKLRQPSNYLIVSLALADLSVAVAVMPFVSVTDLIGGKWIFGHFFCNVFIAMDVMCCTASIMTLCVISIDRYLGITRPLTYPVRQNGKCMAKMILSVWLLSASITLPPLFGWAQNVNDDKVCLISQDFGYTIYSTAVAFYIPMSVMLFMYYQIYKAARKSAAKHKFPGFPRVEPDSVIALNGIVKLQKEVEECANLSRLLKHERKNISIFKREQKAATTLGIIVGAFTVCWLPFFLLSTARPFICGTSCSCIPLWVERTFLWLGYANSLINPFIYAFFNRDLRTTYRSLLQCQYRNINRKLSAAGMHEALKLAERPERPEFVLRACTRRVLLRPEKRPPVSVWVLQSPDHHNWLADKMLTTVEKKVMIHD
T1 sequence (P14416 whole entry): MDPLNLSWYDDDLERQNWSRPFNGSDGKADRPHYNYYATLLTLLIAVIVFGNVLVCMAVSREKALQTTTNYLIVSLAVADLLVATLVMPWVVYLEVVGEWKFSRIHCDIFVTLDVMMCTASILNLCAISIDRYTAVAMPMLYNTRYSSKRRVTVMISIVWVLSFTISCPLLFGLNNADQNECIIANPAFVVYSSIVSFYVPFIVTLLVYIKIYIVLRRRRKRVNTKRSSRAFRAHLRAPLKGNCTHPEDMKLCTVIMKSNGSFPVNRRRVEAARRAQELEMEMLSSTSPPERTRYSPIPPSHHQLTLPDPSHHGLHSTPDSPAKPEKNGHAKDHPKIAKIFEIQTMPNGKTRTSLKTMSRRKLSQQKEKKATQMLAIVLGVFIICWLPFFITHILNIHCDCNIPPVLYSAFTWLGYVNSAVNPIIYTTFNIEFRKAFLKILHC
D(2) dopamine receptor (Rattus norvegicus, UniProt P61169), sequence (P61169 whole entry): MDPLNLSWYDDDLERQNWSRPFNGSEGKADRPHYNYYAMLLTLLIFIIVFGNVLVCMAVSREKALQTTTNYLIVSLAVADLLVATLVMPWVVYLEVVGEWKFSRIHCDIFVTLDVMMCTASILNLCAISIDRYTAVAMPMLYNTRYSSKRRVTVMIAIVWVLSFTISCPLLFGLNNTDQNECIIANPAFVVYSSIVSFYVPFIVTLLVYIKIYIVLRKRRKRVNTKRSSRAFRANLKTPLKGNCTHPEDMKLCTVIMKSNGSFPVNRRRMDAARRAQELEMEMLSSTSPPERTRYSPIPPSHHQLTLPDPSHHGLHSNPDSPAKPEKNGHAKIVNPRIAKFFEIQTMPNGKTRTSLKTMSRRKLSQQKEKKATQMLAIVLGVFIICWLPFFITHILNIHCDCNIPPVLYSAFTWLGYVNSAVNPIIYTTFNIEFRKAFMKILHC
5-hydroxytryptamine receptor 2A (Rattus norvegicus, UniProt P14842), sequence (P14842 whole entry): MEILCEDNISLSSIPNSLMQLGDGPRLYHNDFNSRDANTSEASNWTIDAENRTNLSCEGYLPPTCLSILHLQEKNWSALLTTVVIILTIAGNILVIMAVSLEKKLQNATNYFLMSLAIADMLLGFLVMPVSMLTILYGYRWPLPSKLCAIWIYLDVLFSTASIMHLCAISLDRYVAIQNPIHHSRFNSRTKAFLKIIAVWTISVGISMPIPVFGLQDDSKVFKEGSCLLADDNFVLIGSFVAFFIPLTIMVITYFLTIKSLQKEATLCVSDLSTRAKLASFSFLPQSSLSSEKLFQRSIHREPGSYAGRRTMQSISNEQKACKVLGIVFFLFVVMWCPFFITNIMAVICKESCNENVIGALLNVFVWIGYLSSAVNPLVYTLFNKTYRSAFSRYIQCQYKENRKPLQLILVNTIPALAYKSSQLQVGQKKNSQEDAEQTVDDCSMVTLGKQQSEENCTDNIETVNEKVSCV

Row | Ki [1] [nM] | Ki [2] [nM] | Ki (D(2) dopamine receptor [3]) [nM] | Ki [4] [nM] | Ki [5] [nM] | Compound | also measured
1 | 321 | 971 | 48 | 192 | 20 | O=C1c2ccccc2S(=O)(=O)N1CCCCCCN1CCN(c2ccccc2)CC1 | 
2 |  |  |  |  |  | O=c1ccc2ccc(OCCCCN3CCN(c4cccc5sccc45)CC3)cc2[nH]1 [BREXPIPRAZOLE] | Ki [6]: 0.09 nM; Ki (D(2) dopamine receptor [7]): 3.8 nM
3 | 23 | 58 | 9 | 45 | 23 | O=C1c2ccccc2S(=O)(=O)N1CCCCCCN1CCN(c2nsc3ccccc23)CC1 | 
4 | 266 | 459 | 45 | 120 | 26 | O=C1c2ccccc2S(=O)(=O)N1CCCCCCN1CCN(c2ccccc2Cl)CC1 | 
5 |  |  | 28 |  | 84 | O=C1c2ccccc2S(=O)(=O)N1CCCCCCN1CCN(c2ccc(Cl)cc2)CC1 | 
6 | 205 | 1720 | 15 | 21 | 4 | O=C1c2ccccc2S(=O)(=O)N1CCCCCCN1CCN(c2cccc3cccnc23)CC1 | Kb (D(2) dopamine receptor [8]): 10 nM; Kb [9]: 7 nM
7 |  |  |  |  |  | O=C1c2ccccc2S(=O)(=O)N1CCCCN1CCN(c2cccc(C(F)(F)F)c2)CC1 | Ki [10]: 100 nM; Ki [11]: 2250 nM
8 | 167 | 52 | 7 | 58 | 25 | O=C1c2ccccc2S(=O)(=O)N1CCCCCCN1CCN(c2cccc(C(F)(F)F)c2)CC1 | EC50 [12]: 56 nM; Kb (D(2) dopamine receptor [8]): 319 nM
9 | 1290 | 2350 | 239 | 552 | 13 | O=C1c2ccccc2S(=O)(=O)N1CCCCCCN1CCN(c2ccccn2)CC1 | 
10 | 209 | 920 | 132 | 119 | 58 | O=C1c2ccccc2S(=O)(=O)N1CCCCCCN1CCN(c2cccc(Cl)c2Cl)CC1 | 
11 | 922 | 1270 | 27 | 195 | 156 | O=C1c2ccccc2S(=O)(=O)N1CCCCCCN1CCN(c2ccccc2C(F)(F)F)CC1 | 
12 |  |  | 950 |  | 327 | COc1ccc(N2CCN(CCCCCCN3C(=O)c4ccccc4S3(=O)=O)CC2)cc1 | 
13 |  |  |  |  |  | O=C1c2ccccc2S(=O)(=O)N1CCCCN1CCN(c2ncccn2)CC1 [IPSAPIRONE] | Ki (D(2) dopamine receptor [13]): 1220 nM
14 | 361 | 372 | 39 | 233 | 21 | O=C1c2ccccc2S(=O)(=O)N1CCCCCCN1CCN(c2cccc(Cl)c2)CC1 | 
15 | 342 | 921 | 113 | 305 | 19 | COc1cccc(N2CCN(CCCCCCN3C(=O)c4ccccc4S3(=O)=O)CC2)c1 | 
16 | 283 | 132 | 105 | 258 | 54 | O=C1c2ccccc2S(=O)(=O)N1CCCCCCN1CCN(c2ccc(Cl)c(Cl)c2)CC1 | 
17 | 183 | 104 | 51 | 35 | 24 | O=C1c2ccccc2S(=O)(=O)N1CCCCCCN1CCN(c2ncccn2)CC1 | 
18 | 307 | 1620 | 24 | 322 | 12 | O=C1c2ccccc2S(=O)(=O)N1CCCCCCN1CCN(c2ccccc2F)CC1 | 
19 |  |  | 61 |  | 91 | COc1ccccc1N1CCN(CCCCCCN2C(=O)c3ccccc3S2(=O)=O)CC1 | 
20 | 91 | 157 | 8 | 20 | 9 | O=C1c2ccccc2S(=O)(=O)N1CCCCCCN1CCN(c2cccc3ccccc23)CC1 | Kb (D(2) dopamine receptor [8]): 14 nM; Kb [9]: 14 nM
